Measurements as given in patent US20250242043A1, “ANTIBODY-DRUG CONJUGATE COMPRISING ANTIBODY AGAINST HUMAN TROP2 AND USE THEREOF” (priority 2022, published 2025).
Square brackets hold non-standard residues; d marks the D form. Peptide text beside a SMILES is read from it. * marks the point of attachment. Dolaproine = CO[C@@H]([C@@H]1CCCN1)[C@@H](C)C(=O)O; Dil = CC[C@H](C)[C@H](NC)[C@@H](CC(=O)O)OC; X1 = C[C@@H](N*)[C@@H](O)c1ccccc1; NMeV = CN[C@H](C(=O)O)C(C)C

Experiments:
Test in all cases: In vitro cytotoxicity (cell proliferation inhibition), SRB dye or Cell titer glo
Type in all cases: cell-based, human
HCT15 = conditions: HCT15, 144 hours
Description: (§1) The cell proliferation inhibitory activity of the ADC produced according to <Example 2> and the drug alone included in the ADC against cancer cell lines were measured.
(§2) Specifically, human pancreatic cancer cell lines (BxPC-3, Capan-1, and PATU-8988s), breast cancer cell lines (JIMT-1 and MDA-MB-468), gastric cancer cell lines (NCI-N87, SNU-601, and SNU-620), colon cancer cell lines (HCT15, HT29, DLD-1, SW480, and COLO205), an ovarian cancer cell line (OVCAR-3), prostate cancer cell lines (PC-3 and LNCaP), and non-small cell lung cancer cell lines (NCI-H1781, HCC827, Calu-1, and Calu-3), which are commercially available as cancer cell lines, were used. MMAE as a drug alone included in the ADC prepared according to Example 3 and SG2057 (CAS #: 260417-62-7, MedKoo Biosciences) as a PBD dimer were used. 500 cells/well to 5,000 cells/well of each cancer cell line were seeded into a 96-well plate and cultured for 24 hours, and then each of ADC1, ADC2 and ADC3 produced according to Example 3 and the drugs MMAE and SG2057 alone were treated at a concentration of […] to 100 nM (5-fold serial dilution). After 144 hours, the number of living cells was quantified using a sulforhodamine B (SRB) dye or Cell titer glo.

DLD-1 = conditions: DLD-1, 144 hours
Description: as §1, §2

HT29 = conditions: HT29, 144 hours
Description: as §1, §2

SW480 = conditions: SW480, 144 hours
Description: as §1, §2

COLO205 = conditions: COLO205, 144 hours
Description: as §1, §2

PC-3 = conditions: PC-3, 144 hours
Description: as §1, §2

LNCaP = conditions: 144 hours
Description: as §1, §2

Capan-1 = conditions: Capan-1, 144 hours
Description: as §1, §2

Patu8988S = conditions: 144 hours
Description: as §1, §2

Calu-3 = conditions: Calu-3, 144 hours
Description: as §1, §2

NCI-N87 = conditions: NCI-N87, 144 hours
Description: as §1, §2

SNU-601 = conditions: SNU-601, 144 hours
Description: as §1, §2

BxPC-3 = conditions: BxPC-3, 144 hours
Description: as §1, §2

NCI-H1781 = conditions: NCI-H1781, 144 hours
Description: as §1, §2

MDA-MB-468 = conditions: MDA-MB-468, 144 hours
Description: as §1, §2

OVCAR-3 = conditions: OVCAR-3, 144 hours
Description: as §1, §2

HCC827 = conditions: HCC827, 144 hours
Description: as §1, §2

JIMT-1 = conditions: JIMT-1, 144 hours
Description: as §1, §2

Calu-1 = conditions: Calu-1, 144 hours
Description: as §1, §2

SNU-620 = conditions: SNU-620, 144 hours
Description: as §1, §2

Structure (SMILES)	CC50 (HCT15)	CC50 (DLD-1)	CC50 (HT29)	CC50 (SW480)	CC50 (COLO205)	CC50 (PC-3)	CC50 (LNCaP)	CC50 (Capan-1)	CC50 (Patu8988S)	CC50 (Calu-3)	CC50 (NCI-N87)	CC50 (SNU-601)	CC50 (BxPC-3)	CC50 (NCI-H1781)	CC50 (MDA-MB-468)	CC50 (OVCAR-3)	CC50 (HCC827)	CC50 (JIMT-1)	CC50 (Calu-1)	CC50 (SNU-620)
CC[C@H](C)[C@@H]([C@@H](CC(=O)N1CCC[C@H]1[C@H](OC)[C@@H](C)C(=O)N[C@H](C)[C@@H](O)c1ccccc1)OC)N(C)C(=O)[C@@H](NC(=O)[C@@H](NC)C(C)C)C(C)C [MMAE, monomethyl auristatin E] (H-[NMeV]V[Dil][Dolaproine]-X1)	3.87 nM	8.88 nM	0.33 nM	3.83 nM	0.628 nM	0.946 nM	0.551 nM	0.52 nM	0.334 nM	0.4 nM	0.725 nM	0.268 nM	0.606 nM	0.208 nM	0.64 nM	0.304 nM	0.674 nM	0.154 nM	0.971 nM	0.651 nM
C=C1C[C@H]2C=Nc3cc(OCCCCCOc4cc5c(cc4OC)C(=O)N4CC(=C)C[C@H]4C=N5)c(OC)cc3C(=O)N2C1 [SG2057]	0.161 nM	0.05 nM	0.02 nM	–	–	–	–	–	–	–	–	–	–	–	–	–	–	–	–	–
